According to patent US12637428B2, “Isoquinoline derivatives as SIK2 inhibitors” (Cancer Research Technology Limited, priority 2019, dated 2026):
pKi: −log10 of the molar value.

Legend:
Assay type in all cases: biochemical
[1] = biological target: T1, SIK2 (Homo sapiens, UniProt Q9H0K1); assay: SIK2 kinase assay, IMAP fluorescence polarization; settings: 50 or 100 μM ATP, average
T1 construct: purchased Life Technologies
Outline: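 Kinases (0.6–13 nM) incubated 60 min at room temperature with 100 nM FAM-Abltide, FAM-Srctide or FAM-HDAC peptide and 50 or 100 μM ATP in 20 mM Tris pH 7.2, 4 mM MgCl2, 0.2% BSA, 2 mM DTT. IMAP binding reagent (85:15 buffer A:B; 30:70 for Src) stopped reactions; fluorescence polarization read; compounds tested 0.00005–1 μM.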

[2] = biological target: T2, SIK3 (Homo sapiens, UniProt Q9Y2K2); assay: SIK3 kinase assay, IMAP fluorescence polarization; settings: 50 or 100 μM ATP, average
T2 construct: purchased Life Technologies
Experimental: (§1) SIK2, SIK1, SIK3, Abl, Src and EPHA2 Kinase Assays
(§2) SIK2, SIK1, SIK3, Abl, Src and EPHA2 assays were performed using an IMAP fluorescence polarization assay format (Molecular Devices Inc.). 0.6-13 nM of each kinase (Life Technologies) was incubated for 60 min at room temperature with 100 nM of either FAM-Abltide, FAM-Srctide or FAM-HDAC protein derived peptide (synthesized by Alta Biosciences, Birmingham UK). Assays were carried out in the presence of 50 or 100 μM ATP in either 20 mM Tris buffer (pH 7.2) containing 4 mM MgCl2, 0.2% BSA and 2 mM DTT (SIK2, SIK1, SIK3, Abl, Src); or 20 mM Tris buffer (pH 8.5) containing 20 mM MgCl2, 0.5% BSA, 0.2% Triton and 5 mM DTT (EPHA2). Typically, dose response analyses were performed over concentration ranges from 0.00005-1 μM. Reactions were stopped by adding 2 assay volumes of 0.25% (v/v) IMAP binding reagent in either an 85:15 ratio (SIK2, SIK1, SIK3, Abl, EPHA2) or 30:70 ratio (Src) of IMAP binding buffers A and B (Molecular Devices). After incubation to allow the detection reagents to bind to the phosphorylated peptide, fluorescence polarization was measured on a Tecan Infinite plate reader at excitation (470 nm) and emission (530 nm) wavelengths. Inhibition was calculated using no inhibitor and no enzyme controls as 0 and 100% inhibition, respectively.
(§3) Table 3 provides details of the inhibitory constant (nM) of compounds of the invention at SIK1, SIK2 and SIK3 and other kinases.

[3] = biological target: T3, Src (Homo sapiens, UniProt P12931); assay: Src kinase assay, IMAP fluorescence polarization; settings: 50 or 100 μM ATP, average
T3 construct: purchased Life Technologies
Experimental: as §1, §2, §3

[4] = biological target: T4, SIK1 (Homo sapiens, UniProt P57059); assay: SIK1 kinase assay, IMAP fluorescence polarization; settings: 50 or 100 μM ATP, average
T4 construct: purchased Life Technologies
Experimental: as §1, §2, §3

[5] = biological target: T5, Abl (Homo sapiens, UniProt P00519); assay: Abl kinase assay, IMAP fluorescence polarization; settings: 50 or 100 μM ATP, average
T5 construct: purchased Life Technologies
Experimental: as §1, §2, §3

[6] = biological target: T6, EPHA2 (Homo sapiens, UniProt P29317); assay: EPHA2 kinase assay, IMAP fluorescence polarization; settings: 50 or 100 μM ATP, Tris pH 8.5, average
T6 construct: purchased Life Technologies
Experimental: as §1, §2, §3

T4 sequence (P57059 whole entry): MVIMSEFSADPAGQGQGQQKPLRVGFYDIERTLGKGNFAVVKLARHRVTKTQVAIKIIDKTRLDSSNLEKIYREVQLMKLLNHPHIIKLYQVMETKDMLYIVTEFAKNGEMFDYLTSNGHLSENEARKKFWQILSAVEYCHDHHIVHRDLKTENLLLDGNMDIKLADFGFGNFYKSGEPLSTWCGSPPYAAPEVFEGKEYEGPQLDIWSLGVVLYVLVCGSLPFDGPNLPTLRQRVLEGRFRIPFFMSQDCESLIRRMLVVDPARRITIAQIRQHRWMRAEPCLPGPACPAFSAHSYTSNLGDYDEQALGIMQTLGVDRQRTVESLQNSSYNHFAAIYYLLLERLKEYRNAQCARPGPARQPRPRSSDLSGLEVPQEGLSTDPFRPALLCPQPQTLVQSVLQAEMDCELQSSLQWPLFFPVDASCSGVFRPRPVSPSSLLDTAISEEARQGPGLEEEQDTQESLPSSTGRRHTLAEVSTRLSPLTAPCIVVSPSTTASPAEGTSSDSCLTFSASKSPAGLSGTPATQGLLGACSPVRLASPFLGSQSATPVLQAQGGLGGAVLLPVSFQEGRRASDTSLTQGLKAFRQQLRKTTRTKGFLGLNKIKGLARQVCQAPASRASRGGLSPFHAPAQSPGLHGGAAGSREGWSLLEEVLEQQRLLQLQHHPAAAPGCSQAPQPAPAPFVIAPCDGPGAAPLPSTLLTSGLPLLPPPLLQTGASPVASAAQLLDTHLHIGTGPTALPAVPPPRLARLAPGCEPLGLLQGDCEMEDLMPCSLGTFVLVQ
T6 sequence (P29317 24-976): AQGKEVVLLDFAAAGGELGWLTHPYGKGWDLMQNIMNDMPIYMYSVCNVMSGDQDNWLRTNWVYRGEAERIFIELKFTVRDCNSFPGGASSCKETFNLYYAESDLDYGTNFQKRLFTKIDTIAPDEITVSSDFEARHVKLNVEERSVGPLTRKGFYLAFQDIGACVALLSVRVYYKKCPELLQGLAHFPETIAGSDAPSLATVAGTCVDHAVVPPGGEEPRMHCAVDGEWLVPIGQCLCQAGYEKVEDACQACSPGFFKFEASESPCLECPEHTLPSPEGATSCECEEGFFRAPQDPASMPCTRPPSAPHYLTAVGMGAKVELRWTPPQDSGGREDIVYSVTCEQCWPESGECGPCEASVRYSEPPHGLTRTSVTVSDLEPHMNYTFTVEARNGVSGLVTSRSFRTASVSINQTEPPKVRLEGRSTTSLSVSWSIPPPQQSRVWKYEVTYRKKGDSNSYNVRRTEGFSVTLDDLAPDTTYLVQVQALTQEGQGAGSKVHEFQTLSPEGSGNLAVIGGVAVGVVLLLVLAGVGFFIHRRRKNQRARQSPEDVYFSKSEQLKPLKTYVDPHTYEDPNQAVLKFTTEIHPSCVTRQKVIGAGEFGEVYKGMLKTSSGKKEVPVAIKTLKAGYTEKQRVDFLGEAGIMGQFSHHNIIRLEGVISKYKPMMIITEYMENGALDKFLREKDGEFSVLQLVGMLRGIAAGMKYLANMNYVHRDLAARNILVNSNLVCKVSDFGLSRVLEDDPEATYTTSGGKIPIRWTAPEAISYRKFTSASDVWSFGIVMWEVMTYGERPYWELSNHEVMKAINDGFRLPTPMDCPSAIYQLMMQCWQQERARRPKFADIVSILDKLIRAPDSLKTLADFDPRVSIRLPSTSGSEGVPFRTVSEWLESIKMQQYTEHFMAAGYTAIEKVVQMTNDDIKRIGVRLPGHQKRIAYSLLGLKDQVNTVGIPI
T3 sequence (P12931 whole entry): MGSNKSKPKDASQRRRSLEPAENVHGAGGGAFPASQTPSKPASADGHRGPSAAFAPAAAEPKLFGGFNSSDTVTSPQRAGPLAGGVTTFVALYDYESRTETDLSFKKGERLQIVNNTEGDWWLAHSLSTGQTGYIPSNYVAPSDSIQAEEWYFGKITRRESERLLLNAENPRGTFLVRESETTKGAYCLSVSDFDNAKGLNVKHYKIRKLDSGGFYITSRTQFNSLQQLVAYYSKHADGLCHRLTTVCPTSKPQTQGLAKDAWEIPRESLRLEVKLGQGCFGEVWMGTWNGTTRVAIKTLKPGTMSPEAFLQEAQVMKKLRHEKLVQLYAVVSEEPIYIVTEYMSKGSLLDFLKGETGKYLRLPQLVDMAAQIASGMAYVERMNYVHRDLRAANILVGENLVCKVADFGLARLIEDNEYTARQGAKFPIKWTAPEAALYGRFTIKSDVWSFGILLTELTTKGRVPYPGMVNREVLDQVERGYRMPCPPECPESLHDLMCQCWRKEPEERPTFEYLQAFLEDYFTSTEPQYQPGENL
T5 sequence (P00519 whole entry): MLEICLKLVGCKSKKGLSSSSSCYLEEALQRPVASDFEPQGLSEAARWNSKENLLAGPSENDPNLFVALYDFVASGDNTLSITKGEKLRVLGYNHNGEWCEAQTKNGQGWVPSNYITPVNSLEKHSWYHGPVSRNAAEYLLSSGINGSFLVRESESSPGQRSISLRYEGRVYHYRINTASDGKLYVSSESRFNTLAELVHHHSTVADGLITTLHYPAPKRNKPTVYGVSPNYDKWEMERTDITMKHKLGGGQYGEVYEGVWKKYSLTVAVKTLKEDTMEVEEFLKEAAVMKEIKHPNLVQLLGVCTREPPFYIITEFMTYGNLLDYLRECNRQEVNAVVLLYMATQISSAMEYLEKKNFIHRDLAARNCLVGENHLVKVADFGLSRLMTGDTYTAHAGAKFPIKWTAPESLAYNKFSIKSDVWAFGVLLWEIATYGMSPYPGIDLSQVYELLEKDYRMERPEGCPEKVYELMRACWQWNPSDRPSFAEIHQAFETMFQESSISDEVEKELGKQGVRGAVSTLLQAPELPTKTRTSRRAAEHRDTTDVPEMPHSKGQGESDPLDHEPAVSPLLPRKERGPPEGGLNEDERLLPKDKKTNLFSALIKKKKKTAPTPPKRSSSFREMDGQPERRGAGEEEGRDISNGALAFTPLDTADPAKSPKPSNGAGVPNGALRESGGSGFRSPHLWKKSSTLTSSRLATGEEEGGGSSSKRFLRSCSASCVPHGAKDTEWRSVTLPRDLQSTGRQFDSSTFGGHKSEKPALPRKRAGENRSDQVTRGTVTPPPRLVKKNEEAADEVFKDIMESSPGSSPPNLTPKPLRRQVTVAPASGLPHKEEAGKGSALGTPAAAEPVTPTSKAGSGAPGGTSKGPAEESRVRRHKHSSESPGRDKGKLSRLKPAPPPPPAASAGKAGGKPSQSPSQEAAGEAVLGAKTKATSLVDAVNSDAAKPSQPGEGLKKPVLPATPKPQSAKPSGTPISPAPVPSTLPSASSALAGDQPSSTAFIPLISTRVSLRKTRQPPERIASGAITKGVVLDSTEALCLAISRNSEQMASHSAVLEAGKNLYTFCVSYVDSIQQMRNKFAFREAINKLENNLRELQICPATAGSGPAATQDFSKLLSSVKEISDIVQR
T2 sequence (Q9Y2K2 whole entry): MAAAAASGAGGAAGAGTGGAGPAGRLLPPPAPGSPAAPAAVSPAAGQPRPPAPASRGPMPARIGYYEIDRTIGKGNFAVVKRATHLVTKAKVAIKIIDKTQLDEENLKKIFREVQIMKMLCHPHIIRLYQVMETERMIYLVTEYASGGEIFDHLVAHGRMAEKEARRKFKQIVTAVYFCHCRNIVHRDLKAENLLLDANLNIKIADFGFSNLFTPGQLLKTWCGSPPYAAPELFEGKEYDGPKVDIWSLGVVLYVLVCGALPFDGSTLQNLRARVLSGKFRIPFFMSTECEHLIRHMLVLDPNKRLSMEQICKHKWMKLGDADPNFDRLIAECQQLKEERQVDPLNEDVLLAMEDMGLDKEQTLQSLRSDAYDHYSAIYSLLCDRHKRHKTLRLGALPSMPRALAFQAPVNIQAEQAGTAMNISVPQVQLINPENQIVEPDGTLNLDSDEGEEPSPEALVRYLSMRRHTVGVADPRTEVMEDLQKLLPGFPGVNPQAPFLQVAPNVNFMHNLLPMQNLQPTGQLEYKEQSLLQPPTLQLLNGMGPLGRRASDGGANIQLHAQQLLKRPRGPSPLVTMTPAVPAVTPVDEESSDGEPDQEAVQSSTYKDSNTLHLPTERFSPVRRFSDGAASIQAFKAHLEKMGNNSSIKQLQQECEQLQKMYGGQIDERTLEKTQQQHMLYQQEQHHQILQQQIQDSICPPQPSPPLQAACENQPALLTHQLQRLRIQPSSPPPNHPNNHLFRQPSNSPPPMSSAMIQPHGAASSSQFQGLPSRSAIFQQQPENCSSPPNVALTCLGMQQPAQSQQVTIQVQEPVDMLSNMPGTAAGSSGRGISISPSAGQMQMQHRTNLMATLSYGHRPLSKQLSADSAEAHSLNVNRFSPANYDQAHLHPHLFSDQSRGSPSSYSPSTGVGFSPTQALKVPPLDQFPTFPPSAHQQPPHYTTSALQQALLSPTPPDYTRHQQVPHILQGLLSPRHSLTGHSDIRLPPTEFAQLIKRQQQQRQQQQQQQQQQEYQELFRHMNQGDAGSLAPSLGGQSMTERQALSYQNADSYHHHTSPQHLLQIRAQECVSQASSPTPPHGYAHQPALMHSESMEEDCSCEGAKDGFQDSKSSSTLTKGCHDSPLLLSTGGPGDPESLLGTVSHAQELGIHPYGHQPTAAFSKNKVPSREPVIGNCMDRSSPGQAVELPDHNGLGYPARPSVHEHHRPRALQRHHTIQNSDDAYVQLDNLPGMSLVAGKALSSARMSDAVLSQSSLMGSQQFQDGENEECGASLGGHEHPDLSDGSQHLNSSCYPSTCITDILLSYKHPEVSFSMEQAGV

SMILES | pKi [1] | pKi [2] | pKi [3] | pKi [4] | pKi [5] | pKi [6]
Cc1cccc(F)c1-c1cc(N[C@@H]2CCCN(C)C2)c2cc(N)ncc2c1 [Example 85, 7-(2-fluoro-6-methyl-phenyl)-N5-[(3R)-1-methyl-3-piperidyl]isoquinoline-3,5-diamine] | 10.04 | 8.79 | 7.40 | 9.21 | 8.13 | 6.59
Cc1cccc(Cl)c1-c1cc(NC2CCNCC2)c2nc(N)ncc2c1 [Example 137, 6-(2-chloro-6-methyl-phenyl)-N8-(4-piperidyl)quinazoline-2,8-diamine] | 10.16 | 9.29 | 7.73 | 9.53 | 7.65 | 8.04
CN[C@@H]1CCN(c2cc(-c3c(C)cccc3F)cc3cnc(N)cc23)C1 [Example 24, 7-(2-fluoro-6-methyl-phenyl)-5-[(3R)-3-(methylamino)pyrrolidin-1-yl]isoquinolin-3-amine] | 9.40 | 8.12 | 6.49 | 8.63 | 7.47 | 6.83
Cc1cccc(Cl)c1-c1cc(NC2CN(C)C2)c2ccncc2c1 [Example 67, 7-(2-chloro-6-methyl-phenyl)-N-(1-methylazetidin-3-yl)isoquinolin-5-amine] | 7.93 | 7.57 | 6.60 | 7.98 | 7.03 | 7.30
Cc1cccc(F)c1-c1cc(NC2CCNCC2)c2cc(N)ncc2c1F [Example 120, 8-Fluoro-7-(2-fluoro-6-methyl-phenyl)-N5-(4-piperidyl)isoquinoline-3,5-diamine] | 8.62 | 7.66 | < 6.00 | 8.45 | < 6.00 | < 6.00
Cc1cccc(F)c1-c1cc(NC[C@H]2CCCNC2)c2cc(N)ncc2c1 [Example 2, 7-(2-fluoro-6-methyl-phenyl)-N5-[[(3S)-3-piperidyl]methyl]isoquinoline-3,5-diamine] | 9.74 | 8.86 | 6.80 | 9.28 | 7.95 | 7.19
Cc1cccc(F)c1-c1cc(N2CCC[C@H](O)C2)c2cc(N)ncc2c1 [Example 107, (3S)-1-[3-amino-7-(2-fluoro-6-methyl-phenyl)-5-isoquinolyl]piperidin-3-ol] | 8.35 | 6.70 | 6.21 | 7.61 | 7.25 | < 6.00
Cc1cccc(Cl)c1-c1cc(NC2CCN(C)CC2)c2cc(N)ncc2c1 [Example 62, 7-(2-Chloro-6-methyl-phenyl)-N5-(1-methyl-4-piperidyl)isoquinoline-3,5-diamine] | 9.87 | 8.53 | 6.51 | 9.31 | 6.68 | 6.70
Cc1cccc(F)c1-c1cc(NC(=O)C2CCNCC2)c2cc(N)ncc2c1 [Example 44, N-[3-Amino-7-(2-fluoro-6-methyl-phenyl)-5-isoquinolyl]piperidine-4-carboxamide] | 8.23 | 7.43 | 6.54 | 7.81 | 7.07 | 6.19
CCN1CCC(Nc2cc(-c3c(C)cccc3Cl)cc3cncnc23)CC1 [Example 131, 6-(2-chloro-6-methyl-phenyl)-N-(1-ethyl-4-piperidyl)quinazolin-8-amine] | 8.25 | 7.68 | 6.55 | 8.27 | 6.63 | 7.12
Cc1cccc(F)c1-c1cc(NCC2CCNCC2)c2cc(N)ncc2c1 [Example 8, 7-(2-fluoro-6-methyl-phenyl)-N5-(4-piperidylmethyl)isoquinoline-3,5-diamine] | 9.97 | 8.99 | 7.78 | 9.26 | 8.86 | 8.29
Cc1cccc(F)c1-c1cc(C(=O)NC2CN(C)C2)c2cc(N)ncc2c1 [Example 100, 3-amino-7-(2-fluoro-6-methyl-phenyl)-N-(1-methylazetidin-3-yl)isoquinoline-5-carboxamide] | 8.36 | 7.21 | 7.38 | 7.93 | 8.44 | 6.88
Cc1cccc(F)c1-c1cc2cnc(N)cc2c(NC2CCN(C)CC2)c1F [Example 135, 6-Fluoro-7-(2-fluoro-6-methyl-phenyl)-N5-(1-methyl-4-piperidyl)isoquinoline-3,5-diamine] | 10.03 | 9.51 | 7.19 | 9.44 | 8.10 | 7.51
Cc1cccc(F)c1-c1cc(NC2CCNCC2)c2c(C#N)c(N)ncc2c1 [Example 133, 3-Amino-7-(2-fluoro-6-methyl-phenyl)-5-(4-piperidylamino)isoquinoline-4-carbonitrile] | 10.22 | 9.57 | 8.20 | 9.46 | 8.95 | 7.46
Cc1cccc(F)c1-c1cc(N2CCC[C@@H](N(C)C)C2)c2cc(N)ncc2c1 [Example 84, 5-[(3R)-3-(dimethylamino)-1-piperidyl]-7-(2-fluoro-6-methyl-phenyl)isoquinolin-3-amine] | 10.09 | 8.65 | 6.56 | 9.39 | 7.31 | < 6.00
CC(=O)N[C@H]1CCN(c2cc(-c3c(C)cccc3F)cc3cnc(N)cc23)C1 [Example 112, N-[(3S)-1-[3-Amino-7-(2-fluoro-6-methyl-phenyl)-5-isoquinolyl]pyrrolidin-3-yl]acetamide] | 7.83 | 6.37 | < 5.00 | 7.04 | 6.91 | < 5.00
CCN1CCC(Nc2cc(-c3c(C)cccc3F)cc3cncnc23)CC1 [Example 126, N-(1-Ethyl-4-piperidyl)-6-(2-fluoro-6-methyl-phenyl)quinazolin-8-amine] | 8.52 | 8.20 | 6.27 | 8.53 | 7.03 | 6.52
Cc1cccc(F)c1-c1cc(NC[C@@H]2CCCN2)c2cc(N)ncc2c1 [Example 13, 7-(2-fluoro-6-methyl-phenyl)-N5-[[(2S)-pyrrolidin-2-yl]methyl]isoquinoline-3,5-diamine] | 9.72 | 8.99 | 7.61 | 9.30 | 8.48 | 6.84
Cc1cccc(F)c1-c1cc2cnc(N)cc2c(NC2CCNCC2)c1F [Example 134, 6-Fluoro-7-(2-fluoro-6-methyl-phenyl)-N5-(4-piperidyl)isoquinoline-3,5-diamine] | 9.88 | 9.35 | 7.91 | 9.25 | 8.71 | 7.60
CCN1CCC(Nc2cc(-c3c(C)cccc3Cl)cc3cnc(N)nc23)CC1 [Example 128, 6-(2-chloro-6-methyl-phenyl)-N8-(1-ethyl-4-piperidyl)quinazoline-2,8-diamine] | 9.74 | 8.84 | 7.56 | 9.39 | 7.58 | 7.70
